Measurements as given in patent US6632981B1, “DNA sequences encoding polypeptides having beta-1,3-glucanase activity” (Novartis Finance Corporation, priority 1988, dated 2003).

Tests used:
[1] = system: chemically regulatable chimeric genes coding for GUS, AHAS or BT; assay: Primer extension assay for mRNA of chemically regulatable chimeric genes; type: in vivo; settings: callus or regenerated plant material from transgenic plants; level proportional to amount of regulator applied
Experimental: 50 g of total RNA is lyophilized in a 500 l Eppendorf tube. The RNA is resuspended in 30 l of radiolabeled probe solution and heated to 70′ C. for 10 minutes. The tube is slowly cooled to 37° C. and allowed to incubate overnight. Without removing the tube from the 37° C. water bath, 2 l of 10×reverse-transcriptase buffer (500 mM Tris-HCl, pH 7.5, 400 mM KCl, 30 mM MgCl2), 1 l 5 mg/ml bovine serum albumin, 5 l 100 mM dithiothreitol, 5 l 10×dNTPs (10 mM of each dNTP in H2O), 3 l H 20, 2 l RNasin (80 units), and 2 l reverse transcriptase (400 units) are added and the reaction is incubated at 37° C. for 30 minutes. To stop the reaction, 5 l of 3 M sodium acetate, pH 5, and 150 l absolute ethanol are added. The tube is left at −20° C. for 30 minutes, the precipitate is collected by centrifugation, washed with 80% ethanol and allowed to air-dry. The precipitate is resuspended in 10-20 l of loading dye (90% formamide, 0.05% bromophenol blue, 0.05% xylene cyanol, 1 mM EDTA) and the extension products are separated on a 6% sequencing gel (Maniatis, T. et al., supra). Extension products are visualized by autoradiography.
Plant materials induced and harvested as in Examples 140 to 142 are assayed for the induction of mRNA species by the isolation of RNA and the primer extension assay as described in Example 6.
The level of mRNA is proportional to the amount of regulator applied.

[2] = system: cucumber chitinase protein; assay: Cucumber chitinase ELISA in transgenic plants carrying cucumber chitinase genomic constructs after leaf treatment; type: in vivo, tobacco; design: key: —: Indicates that sample has no detectable level of chitinase protein
Experimental: Once the transgenic plants are transferred to soil, they are grown 4-5 weeks before treatment. The following solutions are applied to the leaves with sterile paintbrushes:
3. Methyl benzo-1,2,3-thiadiazole-7-carboxylate. The solution is made by resuspending a wettable powder containing a formulation of the chemical with 25% active ingredient in sterile water at a concentration of 1 mg/ml.
4. Methyl 2,6-dichloroisonicotinate, prepared as above. Alternatively, 30 ul of 10 mM sodium phosphate buffer, pH 7.0, or 30 ul of the same buffer containing tobacco mosaic virus (50-100 pfu/30 ul) is applied to the leaves which have been sprinkled with carborundum. The buffers are distributed over the whole treated leaf by gentle rubbing.
The plants are allowed to continue to grow for seven days. The treated leaves are then harvested, frozen in liquid nitrogen and stored at −80° C. until they are assayed.
Frozen leaf tissue is ground in a mortar with a pestle in the presence of liquid nitrogen to produce a fine powder. 0.33 g of each tissue sample is added to 1 ml extraction buffer (50 mM Tris-HCl, pH 8.5, 0.2M 2-mercaptoethanol, 2 mM phenyl methyl sulfonyl fluoride, 2 mM benzamidine, 10 mM epsilon-aminocaproic acid, 1 mM leueptine) and the sample homogenized for one minute with an Ultra Turrax Mixer (shaft #S25N-8G, Tekmar Co. Cincinnati, Ohio). The samples are then centrifuged at 48,000×g for fifteen minutes at 4° C. and the supernatant removed from the pelleted material. The extracts are diluted at least 1:50 in ELISA diluent (101 mM sodium phosphate, pH 7.4, 140 mM sodium chloride, 0.05% Tween 20, 0.02% sodium azide, 1% BSA).
A microtiter plate is coated with monoclonal antibody specific to the cucumber chitinase protein at 2 ug/ml in borate-buffered saline (100 mM boric acid, 25mM sodium borate, 75 mM sodium chloride; pH 8.5) using 50 ul per well. The plate is incubated overnight at 4° C. The plate is washed with ELISA wash buffer (10 mM Tris-HCl, pH 8.0, 0.05% Tween 20, 3 mM sodium azide) and BSA blocking solution (10 mM sodium phosphate, pH 7.4, 140 mM sodium chloride, 0.02% sodium azide, 1% BSA) is added to completely cover each well. Incubation is for at least 30 minutes at room temperature.
The microtiter plate is washed with ELISA wash buffer and 50 ul of extract is added to the appropriate well. 50 ul of each of 10 chitinase protein standards (ranging from 0 ng/ml to 31.64 ng/ml) was also added to the appropriate well and the plate is incubated for two hours at 4° C. The plate is washed with ELISA wash buffer and 50 ul of rabbit polyclonal antibody to the cucumber chitainase protein (diluted 1:15,000 in ELISA diluent) is added to the well and incubated for one hour at 37° C. After washing with ELISA wash buffer, 50 ul of goat anti-rabbit conjugated to alkaline phosphatase (1:500 in ELISA diluent) is added to each well and incubated at 37° C. for one hour. The plate is then washed and 50 ul alkaline phosphatase substrate solution (0.6 mg/ml p-nitrophenyl phosphate in 0.5 mM magnesium chloride and 10% diethanolamine) is added to each well. After a 30 minute incubation at room temperature, 50 ul of 3N sodium hydroxide is added to each well to stop the reaction.
The plate is read at 405 nm and 492 nm on an HP Genenchem ELISA plate reader. The output values are expressed as A(405 nm)-A(492 nm)−0.092 to allow for correction of p-nitrophenyl phosphate as substrate. The chitinase standards for each plate are graphed logarithmically. The amount of chitinase protein in each sample is determined from the standard curve. If the amount of chitinase in any sample is close to the upper limit of the curve, the sample is assayed again at a greater dilution. Final results are expressed in the table below in ug chitinase per gram tissue.

SMILES: COC(=O)c1cccc2nnsc12 [Methyl benzo-1,2,3-thiadiazole-7-carboxylate]
- level of mRNA of the chimeric gene (GUS, AHAS or BT primer), primer extension assay [1]: elevated levels of mRNA
- ELISA ASSAY RESULTS (ug chitinase/g tissue) ([2]; line Bam-1 (2001/BamChit), leaves harvested after seven days, water 0.066, buffer —): 3.000 ug chitinase/g tissue
- ELISA ASSAY RESULTS (ug chitinase/g tissue) ([2]; line Bam-3 (2001/BamChit), seven days, water —, buffer —): 0.504 ug chitinase/g tissue
- ELISA ASSAY RESULTS (ug chitinase/g tissue) ([2]; line Bam-4 (2001/BamChit), seven days, water —, buffer —): —
- ELISA ASSAY RESULTS (ug chitinase/g tissue) ([2]; line Bam-8 (2001/BamChit), seven days, water —, buffer —): —
- ELISA ASSAY RESULTS (ug chitinase/g tissue) ([2]; line Bam-9 (2001/BamChit), seven days, water —, buffer —): 33.885 ug chitinase/g tissue
- ELISA ASSAY RESULTS (ug chitinase/g tissue) ([2]; line Bam-10 (2001/BamChit), seven days, water 0.059, buffer 0.084): 25.182 ug chitinase/g tissue
- ELISA ASSAY RESULTS (ug chitinase/g tissue) ([2]; line Bam-12 (2001/BamChit), seven days, water —, buffer —): 1.349 ug chitinase/g tissue
- ELISA ASSAY RESULTS (ug chitinase/g tissue) ([2]; line Bam-14 (2001/BamChit), seven days, water —, buffer —): 0.541 ug chitinase/g tissue
- ELISA ASSAY RESULTS (ug chitinase/g tissue) ([2]; line Bam-15 (2001/BamChit), seven days, water —, buffer —): 3.366 ug chitinase/g tissue
- ELISA ASSAY RESULTS (ug chitinase/g tissue) ([2]; line Bam-16 (2001/BamChit), seven days, water —, buffer —): 18.849 ug chitinase/g tissue
- ELISA ASSAY RESULTS (ug chitinase/g tissue) ([2]; line Bam-17 (2001/BamChit), seven days, water —, buffer —): 2.997 ug chitinase/g tissue
- ELISA ASSAY RESULTS (ug chitinase/g tissue) ([2]; line Bam-19 (2001/BamChit), seven days, water —, buffer —): 0.998 ug chitinase/g tissue
- ELISA ASSAY RESULTS (ug chitinase/g tissue) ([2]; line Bam-21 (2001/BamChit), seven days, water —, buffer —): —
- ELISA ASSAY RESULTS (ug chitinase/g tissue) ([2]; line Bam-23 (2001/BamChit), seven days, water —, buffer —): 0.782 ug chitinase/g tissue
- ELISA ASSAY RESULTS (ug chitinase/g tissue) ([2]; line Bam-24 (2001/BamChit), seven days, water —, buffer —): 0.88 ug chitinase/g tissue
- ELISA ASSAY RESULTS (ug chitinase/g tissue) ([2]; line Bam-25 (2001/BamChit), seven days, water —, buffer —): 18.145 ug chitinase/g tissue
- ELISA ASSAY RESULTS (ug chitinase/g tissue) ([2]; line Bam-26 (2001/BamChit), seven days, water —, buffer —): 0.676 ug chitinase/g tissue
- ELISA ASSAY RESULTS (ug chitinase/g tissue) ([2]; line Nco-2 (2001/NcoChit), seven days, water —, buffer —): —
- ELISA ASSAY RESULTS (ug chitinase/g tissue) ([2]; line Nco-3 (2001/NcoChit), seven days, water —, buffer —): —
- ELISA ASSAY RESULTS (ug chitinase/g tissue) ([2]; line Nco-5 (2001/NcoChit), seven days, water —, buffer —): —
- ELISA ASSAY RESULTS (ug chitinase/g tissue) ([2]; line Nco-8 (2001/NcoChit), seven days, water —, buffer —): —
- ELISA ASSAY RESULTS (ug chitinase/g tissue) ([2]; line Nco-9 (2001/NcoChit), seven days, water —, buffer —): —
- ELISA ASSAY RESULTS (ug chitinase/g tissue) ([2]; line Nco-10 (2001/NcoChit), seven days, water —, buffer —): 0.047 ug chitinase/g tissue
- ELISA ASSAY RESULTS (ug chitinase/g tissue) ([2]; line Nco-11 (2001/NcoChit), seven days, water —, buffer —): —
- ELISA ASSAY RESULTS (ug chitinase/g tissue) ([2]; line Nco-15 (2001/NcoChit), seven days, water —, buffer —): —
- ELISA ASSAY RESULTS (ug chitinase/g tissue) ([2]; line Nco-16 (2001/NcoChit), seven days, water 0.555, buffer 0.566): 0.784 ug chitinase/g tissue
- ELISA ASSAY RESULTS (ug chitinase/g tissue) ([2]; line Nco-17 (2001/NcoChit), seven days, water —, buffer —): —
- ELISA ASSAY RESULTS (ug chitinase/g tissue) ([2]; line Sal-2 (2001/SalChit), seven days, water —, buffer —): 0.117 ug chitinase/g tissue
- ELISA ASSAY RESULTS (ug chitinase/g tissue) ([2]; line Sal-3 (2001/SalChit), seven days, water —, buffer —): 0.060 ug chitinase/g tissue
- ELISA ASSAY RESULTS (ug chitinase/g tissue) ([2]; line Sal-4 (2001/SalChit), seven days, water —, buffer —): 0.537 ug chitinase/g tissue
- ELISA ASSAY RESULTS (ug chitinase/g tissue) ([2]; line Sal-5 (2001/SalChit), seven days, water —, buffer —): 0.229 ug chitinase/g tissue
- ELISA ASSAY RESULTS (ug chitinase/g tissue) ([2]; line Sal-7 (2001/SalChit), seven days, water —, buffer —): 0.377 ug chitinase/g tissue
- ELISA ASSAY RESULTS (ug chitinase/g tissue) ([2]; line Sal-8 (2001/SalChit), seven days, water —, buffer —): —
- ELISA ASSAY RESULTS (ug chitinase/g tissue) ([2]; line Sal-9 (2001/SalChit), seven days, water —, buffer —): 0.553 ug chitinase/g tissue
- ELISA ASSAY RESULTS (ug chitinase/g tissue) ([2]; line Sal-11 (2001/SalChit), seven days, water —, buffer —): —
- ELISA ASSAY RESULTS (ug chitinase/g tissue) ([2]; line Sal-12 (2001/SalChit), seven days, water —, buffer —): —
- ELISA ASSAY RESULTS (ug chitinase/g tissue) ([2]; line Sal-13 (2001/SalChit), seven days, water —, buffer —): —
- ELISA ASSAY RESULTS (ug chitinase/g tissue) ([2]; line Sal-14 (2001/SalChit), seven days, water —, buffer —): —
- ELISA ASSAY RESULTS (ug chitinase/g tissue) ([2]; line Sal-15 (2001/SalChit), seven days, water —, buffer —): 0.038 ug chitinase/g tissue
